# Experiments:
# human zDHHC7 = target: T1, human zDHHC7 (Homo sapiens, UniProt Q9NXF8); assay: GFP-SNAP25b S-acylation in HEK293T cells co-expressing zDHHC7; format: cell-based; settings: in cellulo HEK293T, compound 25 μM; for inhibition at 25 µM: HEK-293T, read-out: SNAP25 S-acylation inhibition (%), zDHHC7
# T1 construct: expressed in transfected cells; host or cells: HEK293T
# T1 sequence (Q9NXF8 1-308): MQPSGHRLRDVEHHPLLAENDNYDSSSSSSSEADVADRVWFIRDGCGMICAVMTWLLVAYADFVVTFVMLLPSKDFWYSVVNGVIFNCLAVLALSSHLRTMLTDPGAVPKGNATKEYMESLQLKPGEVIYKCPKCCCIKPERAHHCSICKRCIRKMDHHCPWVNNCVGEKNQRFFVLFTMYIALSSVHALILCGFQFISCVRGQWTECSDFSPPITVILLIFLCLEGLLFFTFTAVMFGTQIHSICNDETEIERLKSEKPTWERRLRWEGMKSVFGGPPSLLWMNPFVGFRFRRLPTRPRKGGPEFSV
# Procedure: (§1) We next investigated whether the identified compounds were effective at inhibiting zDHHC enzyme isoforms other than zDHHC2 (Fig. 6 and Table 1). […] We therefore treated cells coexpressing GFP-SNAP25 and each of these zDHHC enzymes with 25 μM of TTZ-1 and TTZ-2 and studied the subsequent effect on SNAP25 S-acylation. […] Importantly, the level of enzyme expression was unaffected by the compounds. […] As any major differences in the expression levels of the different enzymes could in theory contribute to the apparent differential effects of TTZ-1 and TTZ-2, we directly compared the expression of zDHHC2, zDHHC3, zDHHC7, zDHHC15, and zDHHC17 when transfected in HEK293T cells together with GFP-SNAP25.
# Figure 6 Activity of TTZ-1 and TTZ-2 against SNAP25 S-acylation by human zDHHC2, zDHHC3, zDHHC7, zDHHC15, and zDHHC17 expressed in mammalian cells.A–E, HEK293T cells were transfected with a plasmid encoding GFP-SNAP25b together with either a control plasmid pEF-BOS-HA (pEF) or a plasmid encoding either HA-tagged human zDHHC2 (zD2) (A), zDHHC3 (zD3) (B), zDHHC7 (zD7) (C), zDHHC15 (zD15) (D), or zDHHC17 (zD17) (E) for 24 h. Cells were then preincubated for 4 h with TTZ-1 or TTZ-2 (25 μM final) or DMSO control before metabolic labeling with 100 μM C16:0-azide for 4 h. Cells were lysed, and proteins having incorporated C16:0-azide were labeled by click chemistry with an alkyne-IR800 dye. Protein samples were then resolved by SDS-PAGE and transferred to nitrocellulose membranes that were first stained with an infrared-680 total protein stain. Membranes were then destained and probed with an anti-HA antibody (IR680), followed by an anti-GFP antibody (IR680). Representative images are shown, and panels are presented in the following order (from top to bottom): click chemistry signal (Click [IR800]), GFP and HA immunoblots (IR680), and Total Protein Stain (IR680). Positions of the molecular mass markers (in kilodalton) are indicated on the right side of the membranes. Three independent experiments were performed either in duplicate or in triplicate, and the quantification data were gathered on the graphs below each set of membranes. […] Filled circles represent individual samples. […] Filled circles represent individual samples. Statistical analysis (ANOVA) was performed to test whether there was a significant difference between the zDHHC expression of cells treated with DMSO as a control versus similar samples treated with TTZ-1 or TTZ-2 (∗∗p < 0.01). F, samples from A, B, C, D, and E (expressing GFP-SNAP25 and HA-tagged zDHHC enzymes and treated with DMSO) were loaded on an SDS-PAGE gel and transferred to a nitrocellulose membrane. The membrane was probed for the expression of the HA-tagged enzymes with an anti-HA antibody (IR680). […]
# human zDHHC15 = target: T2, human zDHHC15 (Homo sapiens, UniProt Q96MV8); assay: GFP-SNAP25b S-acylation in HEK293T cells co-expressing zDHHC15; format: cell-based; settings: HEK-293T; in cellulo HEK293T, compound 25 μM; read-out: SNAP25 S-acylation inhibition (%), zDHHC15
# T2 construct: expressed in transfected cells; host or cells: HEK293T
# T2 sequence (Q96MV8 1-337): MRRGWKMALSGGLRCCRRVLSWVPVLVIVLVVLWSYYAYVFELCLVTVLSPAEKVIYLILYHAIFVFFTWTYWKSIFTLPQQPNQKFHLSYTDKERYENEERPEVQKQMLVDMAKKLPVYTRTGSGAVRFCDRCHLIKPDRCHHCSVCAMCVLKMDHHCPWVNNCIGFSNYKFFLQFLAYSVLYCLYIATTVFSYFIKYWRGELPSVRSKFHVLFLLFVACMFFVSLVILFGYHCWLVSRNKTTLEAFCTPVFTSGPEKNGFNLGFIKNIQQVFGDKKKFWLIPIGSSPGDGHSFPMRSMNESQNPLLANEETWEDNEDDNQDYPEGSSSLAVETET
# Procedure: as §1
# Figure 6 Activity of TTZ-1 and TTZ-2 against SNAP25 S-acylation by human zDHHC2, zDHHC3, zDHHC7, zDHHC15, and zDHHC17 expressed in mammalian cells.A–E, HEK293T cells were transfected with a plasmid encoding GFP-SNAP25b together with either a control plasmid pEF-BOS-HA (pEF) or a plasmid encoding either HA-tagged human zDHHC2 (zD2) (A), zDHHC3 (zD3) (B), zDHHC7 (zD7) (C), zDHHC15 (zD15) (D), or zDHHC17 (zD17) (E) for 24 h. […] Three independent experiments were performed either in duplicate or in triplicate, and the quantification data were gathered on the graphs below each set of membranes. […]
SMILES,inhibition at 25 µM (human zDHHC7) [%],"SNAP25 S-acylation inhibition (%), zDHHC7 (human zDHHC7)",inhibition at 25 µM (human zDHHC15) [%]
"CCCCCCCOc1ccc(C(=O)Nc2cccc3c2OC(c2nnn[nH]2)CN3)cc1 (stereo not drawn) [TTZ-1, N-(2-(1H-Tetrazol-5-yl)-3,4-dihydro-2H-benzo[b][1,4]oxazin-8-yl)-4-(heptyloxy)benzamide]",14 ± 7,no significant effect,112 ± 6
"O=C(Nc1cccc2c1OC(c1nnn[nH]1)CN2)c1ccc(OCCCCc2ccccc2)cc1 (stereo not drawn) [TTZ-2, N-(2-(1H-Tetrazol-5-yl)-3,4-dihydro-2H-benzo[b][1,4]oxazin-8-yl)-4-(4-phenylbutoxy)benzamide]",13 ± 7,no significant effect,93 ± 6

# Source: article PMC9558053, “Development of a novel high-throughput screen for the identification of new inhibitors of protein S-acylation” (The Journal of Biological Chemistry, 2022)
